This is an account of results in ChEMBL document CHEMBL6083248, “Synthesis, pharmacological evaluation, and modeling of novel quaternary ammonium salts derived from β-carboline containing an imidazole moiety as angiogenesis inhibitors” (Bioorg Med Chem, 2024).

The pIC50 is the negative decadic logarithm of the IC50, by convention in mol/L.

pIC50: −log10 of the molar value.

One assay concerns CT26. Nature of the assay: Antiproliferative activity against mouse CT26 cells assessed as inhibition of cell growth incubated for 48 hrs by MTT assay. Format: functional, cell-based. The following applies: CT26, 48 h.
The next assay has as its system MCF7. Nature of the assay: Antiproliferative activity against human MCF7 cells assessed as inhibition of cell growth incubated for 48 hrs by MTT assay. Format: functional, cell-based. The following applies: MCF7, 48 h. In general terms: Tetrazolium dyes change colour on reduction, which living cells bring about.
A further assay has as its system A549. Nature of the assay: Antiproliferative activity against human A549 cells assessed as inhibition of cell growth incubated for 48 hrs by MTT assay. Format: functional, cell-based. Particulars: A549, 48 h.
The subject of the next assay is Bel-7402. In words: Antiproliferative activity against human Bel-7402 cells assessed as inhibition of cell growth incubated for 48 hrs by MTT assay. Particulars: Bel-7402, 48 h. Format: functional, cell-based.
For another assay, the system named is BGC-823. Nature of the assay: Antiproliferative activity against human BGC-823 cells assessed as inhibition of cell growth incubated for 48 hrs by MTT assay. The following applies: BGC-823, 48 h. Format: functional, cell-based.
Assay [1] concerns the target Vascular endothelial growth factor receptor 2 (Mus musculus) (UniProt P35918). Nature of the assay: Inhibition of VEGFR2 autophosphorylation in mouse BEND3 cells incubated for 2 hrs by Western blotting analysis. Format: cell-based. (In general: A western blot detects proteins with antibodies after separation by electrophoresis.)
The subject of a further assay is Chorioallantoic membrane. In words: Antiangiogenic activity in chicken embryo chorioallantoic membrane assessed as decrease in microvessel density incubated for 48 hrs by microscopic analysis. The class given is functional, tissue-based. The following applies: Gallus gallus.

Sequence of Vascular endothelial growth factor receptor 2 (Mus musculus) (P35918 whole entry): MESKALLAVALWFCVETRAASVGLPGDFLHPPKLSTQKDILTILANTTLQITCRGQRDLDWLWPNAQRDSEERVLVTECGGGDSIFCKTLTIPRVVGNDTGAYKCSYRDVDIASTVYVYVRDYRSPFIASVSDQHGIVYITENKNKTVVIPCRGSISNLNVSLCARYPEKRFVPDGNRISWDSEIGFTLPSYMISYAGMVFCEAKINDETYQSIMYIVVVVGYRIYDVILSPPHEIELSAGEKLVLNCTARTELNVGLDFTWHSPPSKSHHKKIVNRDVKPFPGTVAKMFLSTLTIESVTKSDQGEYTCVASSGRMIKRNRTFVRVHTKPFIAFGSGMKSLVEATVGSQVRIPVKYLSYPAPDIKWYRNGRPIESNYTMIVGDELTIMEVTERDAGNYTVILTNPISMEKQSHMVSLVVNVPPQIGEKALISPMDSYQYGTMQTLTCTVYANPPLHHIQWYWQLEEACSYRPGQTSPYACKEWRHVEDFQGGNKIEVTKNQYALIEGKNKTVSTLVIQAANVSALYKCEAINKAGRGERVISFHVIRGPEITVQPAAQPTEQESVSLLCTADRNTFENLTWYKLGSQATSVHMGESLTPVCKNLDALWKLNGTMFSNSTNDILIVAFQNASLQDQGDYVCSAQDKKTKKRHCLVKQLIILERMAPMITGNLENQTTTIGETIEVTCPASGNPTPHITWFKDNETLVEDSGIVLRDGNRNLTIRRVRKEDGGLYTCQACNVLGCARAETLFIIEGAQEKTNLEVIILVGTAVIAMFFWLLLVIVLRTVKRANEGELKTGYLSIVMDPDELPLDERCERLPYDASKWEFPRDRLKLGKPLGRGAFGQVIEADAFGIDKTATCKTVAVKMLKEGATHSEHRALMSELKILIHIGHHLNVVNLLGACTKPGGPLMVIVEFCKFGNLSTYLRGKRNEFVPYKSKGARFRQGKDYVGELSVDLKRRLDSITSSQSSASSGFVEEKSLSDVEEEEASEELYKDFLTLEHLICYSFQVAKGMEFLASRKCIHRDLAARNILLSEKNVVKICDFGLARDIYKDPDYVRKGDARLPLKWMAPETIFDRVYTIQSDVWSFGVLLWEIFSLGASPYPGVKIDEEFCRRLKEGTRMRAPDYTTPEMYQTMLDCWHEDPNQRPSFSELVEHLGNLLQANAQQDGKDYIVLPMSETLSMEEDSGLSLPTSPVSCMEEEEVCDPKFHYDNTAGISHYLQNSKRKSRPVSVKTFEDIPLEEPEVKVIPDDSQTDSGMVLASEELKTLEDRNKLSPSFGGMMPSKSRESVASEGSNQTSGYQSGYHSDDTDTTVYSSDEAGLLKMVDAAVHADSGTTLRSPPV

Regarding `CCCCn1c2ccccc2c2cc3cn(-c4ccccc4)c[n+]3cc21`, the pIC50 with CT26 was 5.96; with MCF7 it was 4.81; in the assay on A549 it was 4.84; with Bel-7402, 5.49; with BGC-823, 5.07.

Turning to `c1ccc(Cn2cc3cc4c5ccccc5n(Cc5ccccc5)c4c[n+]3c2)cc1`, the pIC50 was 4.80 with CT26; 5.60 in the assay with MCF7; 4.67 in the assay on A549; 4.88 in the assay with Bel-7402; 5.47 in the assay with BGC-823.

`Fc1ccc(Cn2c3ccccc3c3cc4cn(-c5ccccc5)c[n+]4cc32)cc1`: the pIC50 with CT26 was 5.37; in the assay on MCF7, 4.90; in the assay on A549, 4.63; in the assay on Bel-7402 it was 4.80; in the assay with BGC-823, 4.85.

Turning to `CN(C)CCn1cc2cc3c4ccccc4n(Cc4ccccc4)c3c[n+]2c1`, the pIC50 in the assay on CT26 is 5.05; in the assay on MCF7, 5.34; with A549, 4.93; in the assay with Bel-7402, 5.08; in the assay with BGC-823, 5.55.

For `Cn1c2ccccc2c2cc3cn(-c4ccccc4)c[n+]3cc21`, the pIC50 in the assay on CT26 was 4.74; in the assay with MCF7, 4.70; in the assay on A549, 5.11; in the assay with Bel-7402, 4.74; with BGC-823, 4.90.

For `Clc1cccc(Cn2c3ccccc3c3cc4cn(Cc5ccccc5)c[n+]4cc32)c1`, the pIC50 is 5.89 with CT26; 4.77 in the assay with MCF7; 4.65 in the assay with A549; 4.97 in the assay with Bel-7402; 4.90 with BGC-823.

Regarding `FC(F)(F)c1cccc(-n2cc3cc4c5ccccc5n(Cc5ccccc5)c4c[n+]3c2)c1`, the pIC50 was 5.11 in the assay on CT26; 4.94 with MCF7; 4.68 in the assay on A549; 5.46 with Bel-7402; 4.69 in the assay on BGC-823.

Take `FC(F)(F)c1cccc(-n2cc3cc4c5ccccc5n(Cc5cccc(Cl)c5)c4c[n+]3c2)c1`: the pIC50 was 4.76 with CT26; 5.85 in the assay on MCF7; 5.07 with A549; 5.26 in the assay on Bel-7402; 4.96 in the assay with BGC-823.

On to `FC(F)(F)c1ccc(-n2cc3cc4c5ccccc5n(Cc5ccccc5)c4c[n+]3c2)cc1`, for which the pIC50 in the assay on CT26 is 4.80; in the assay with MCF7, 5.04; in the assay on A549, 4.63; in the assay on Bel-7402 it was 4.79; in the assay on BGC-823, 5.96.

With `FC(F)(F)c1ccc(-n2cc3cc4c5ccccc5n(CCCc5ccccc5)c4c[n+]3c2)cc1`, the pIC50 is 5.32 in the assay on CT26; 5.48 in the assay on MCF7; 4.62 in the assay on A549; 5.28 in the assay with Bel-7402; 4.76 in the assay on BGC-823.

For the molecule `FC(F)(F)c1ccc(-n2cc3cc4c5ccccc5n(Cc5cccc(Cl)c5)c4c[n+]3c2)cc1`, the pIC50 in the assay with CT26 is 5.16; in the assay on MCF7, 5.31; with A549, 4.92; with Bel-7402, 4.67; with BGC-823 it was 5.12.

For the molecule `CN(C)CCn1cc2cc3c4ccccc4n(CCCc4ccccc4)c3c[n+]2c1`, the negative logarithm of the IC50 (pIC50) is 5.42 in the assay on CT26; 5.82 in the assay on MCF7; 4.97 in the assay with A549; 5.08 in the assay with Bel-7402; 4.88 in the assay on BGC-823.

Regarding `Clc1cccc(Cn2c3ccccc3c3cc4cn(-c5ccccc5)c[n+]4cc32)c1`, the pIC50 with CT26 was 5.24; with MCF7, 4.99; in the assay with A549, 4.97; in the assay with Bel-7402, 5.74; in the assay with BGC-823, 4.98.

In the case of `CN(C)c1ccc(-n2cc3cc4c5ccccc5n(C)c4c[n+]3c2)cc1`, the pIC50 with CT26 was 4.63; in the assay with MCF7, 5.42; in the assay on A549 it was 4.81; in the assay on Bel-7402 it was 4.65; with BGC-823 it was 4.72.

Regarding `CN(C)c1ccc(-n2cc3cc4c5ccccc5n(Cc5cccc(Cl)c5)c4c[n+]3c2)cc1`, the pIC50 in the assay with CT26 is 4.68; in the assay on MCF7, 5.10; in the assay with A549, 4.91; with Bel-7402, 5.09; with BGC-823, 4.92.

Regarding `Cn1c2ccccc2c2cc3cn(-c4cccc(C(F)(F)F)c4)c[n+]3cc21`, the pIC50 with CT26 was 5.09; in the assay on MCF7 it was 4.70; in the assay on A549, 4.66; with Bel-7402, 4.96; with BGC-823, 4.75.

For the molecule `Cn1c2ccccc2c2cc3cn(-c4cc(F)cc(F)c4)c[n+]3cc21`, the pIC50 is 4.79 in the assay with CT26; 5.04 with MCF7; 4.91 in the assay on A549; 4.72 with Bel-7402; 5.46 in the assay with BGC-823.

Regarding `COc1ccc(Cn2c3ccccc3c3cc4cn(-c5ccc(N(C)C)cc5)c[n+]4cc32)cc1`, the pIC50 is 4.94 with CT26; 5.29 in the assay with MCF7; 4.70 in the assay with A549; 4.65 in the assay on Bel-7402; 5.14 in the assay on BGC-823.

Regarding `CCCCn1c2ccccc2c2cc3cn(-c4ccc5ccccc5c4)c[n+]3cc21`, the pIC50 was 5.31 in the assay with CT26; 4.90 in the assay with MCF7; 5.08 in the assay on A549; 5.24 in the assay on Bel-7402; 4.84 in the assay on BGC-823.

Turning to `COc1ccc(Cn2c3ccccc3c3cc4cn(-c5ccc(C(F)(F)F)cc5)c[n+]4cc32)cc1`, the pIC50 was 4.64 in the assay on CT26; 4.80 in the assay on MCF7; 5.00 in the assay on A549; 5.39 with Bel-7402; 5.46 with BGC-823.

As for `COc1ccc(Cn2c3ccccc3c3cc4cn(-c5ccccc5)c[n+]4cc32)cc1`, the negative logarithm of the IC50 (pIC50) was 4.88 with CT26; 5.06 in the assay on MCF7; 4.84 in the assay on A549; 4.77 in the assay with Bel-7402; 4.72 in the assay with BGC-823.

For `CCCCn1c2ccccc2c2cc3cn(-c4ccc(C(F)(F)F)cc4)c[n+]3cc21`, the pIC50 is 5.01 in the assay with CT26; 4.92 with MCF7; 5.62 in the assay on A549; 5.11 in the assay on Bel-7402; 5.89 in the assay on BGC-823. In addition, the inhibition result in assay [1] was “Dose-dependent-effect”. Also, the Activity entry in the assay with Chorioallantoic membrane was “Dose-dependent-effect”.

In the case of `CN(C)c1ccc(-n2cc3cc4c5ccccc5n(Cc5ccccc5)c4c[n+]3c2)cc1`, the pIC50 with CT26 was 4.71; in the assay with MCF7 it was 4.85; with A549, 5.12; with Bel-7402, 4.79; in the assay on BGC-823, 5.11.

For `c1ccc(Cn2c3ccccc3c3cc4cn(-c5ccccc5)c[n+]4cc32)cc1`, the negative logarithm of the IC50 (pIC50) in the assay on CT26 is 5.14; in the assay on MCF7, 5.26; with A549 it was 5.17; with Bel-7402 it was 4.94; with BGC-823 it was 5.39.
